The results in this text go back to ChEMBL document CHEMBL1151650, “New Furostanol Glycosides from Asparagus plumosus Leaves” (J Nat Prod, 1985).

The test system of this data set is Biomphalaria glabrata. Kind of data set: Toxic molluscicidal activity against Biomphalaria glabrata. The class given is ADME, organism-based. Particulars: in vivo.

Each structure is given as a SMILES string.

On to `C[C@@H](CC[C@@]1(O)O[C@H]2C[C@H]3[C@@H]4CC=C5C[C@@H](O[C@@H]6O[C@H](CO)[C@@H](O)[C@H](O[C@@H]7O[C@@H](C)[C@H](O)[C@@H](O)[C@H]7O)[C@H]6O[C@@H]6O[C@@H](C)[C@H](O)[C@@H](O)[C@H]6O)CC[C@]5(C)[C@H]4CC[C@]3(C)[C@H]2[C@@H]1C)CO[C@@H]1O[C@H](CO)[C@@H](O)[C@H](O)[C@H]1O`, for which the Activity entry is given as “Non-toxic”.

Regarding `CO[C@]1(CC[C@H](C)CO[C@@H]2O[C@H](CO)[C@@H](O)[C@H](O)[C@H]2O)O[C@H]2C[C@H]3[C@@H]4CC=C5C[C@@H](O[C@@H]6O[C@H](CO)[C@@H](O)[C@H](O[C@@H]7O[C@@H](C)[C@H](O)[C@@H](O)[C@H]7O)[C@H]6O[C@@H]6O[C@@H](C)[C@H](O)[C@@H](O)[C@H]6O)CC[C@]5(C)[C@H]4CC[C@]3(C)[C@H]2[C@@H]1C`, the Activity result is “Non-toxic”.
